Consider twelve compounds from patent US20240342292A1, “Compounds for the Degradation of EGFR Kinase” (BeiGene Switzerland GmbH, priority 2021, published 2024).

One experiment concerns the target T1, L858R/T790M/C797S EGFR (Homo sapiens, UniProt P00533, C797S/L858R/T790M).
T1 construct: expressed in transfected cells; host or cells: H1975 clone #25 (lentiviral over-expression, endogenous EGFR knocked out by sgRNA)
The experiment can be described thus: EGFR degradation HTRF assay in H1975-clone #25 (LTC) cells. It is filed as cell-based. The following applies: 16h treatment; for DC50: H1975 # 25-LTC (L858R/T790M/C797S), HTRF; for Dmax: NCI-H1975, H1975 # 25-LTC (L858R/T790M/C797S), maximum percentage of degradation. The procedure, abridged:
(§1)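 Engineered H1975 lines (exogenous mutant EGFR, endogenous copies knocked out, single clones sequence-verified); 16 h compound, 37 °C/5% CO2, 0.2% DMSO; top 10 uM, 5-fold, 8 pts; lysis 1 h RT, HTRF antibodies overnight RT; 4-parameter logistic fit → DC50.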

The next experiment concerns Del19/T790M/C797S EGFR. Briefly: EGFR degradation HTRF assay in H1975-clone #28 (DTC) cells. Type of experiment: cell-based. The conditions noted are these: H1975 # 28 DTC (Del19/T790M/C797S), 16h treatment; for DC50: HTRF; for Dmax (%): maximum percentage of degradation. The procedure, abridged:
as §1

T1 sequence (P00533 25-1210 T790M/C797S/L858R): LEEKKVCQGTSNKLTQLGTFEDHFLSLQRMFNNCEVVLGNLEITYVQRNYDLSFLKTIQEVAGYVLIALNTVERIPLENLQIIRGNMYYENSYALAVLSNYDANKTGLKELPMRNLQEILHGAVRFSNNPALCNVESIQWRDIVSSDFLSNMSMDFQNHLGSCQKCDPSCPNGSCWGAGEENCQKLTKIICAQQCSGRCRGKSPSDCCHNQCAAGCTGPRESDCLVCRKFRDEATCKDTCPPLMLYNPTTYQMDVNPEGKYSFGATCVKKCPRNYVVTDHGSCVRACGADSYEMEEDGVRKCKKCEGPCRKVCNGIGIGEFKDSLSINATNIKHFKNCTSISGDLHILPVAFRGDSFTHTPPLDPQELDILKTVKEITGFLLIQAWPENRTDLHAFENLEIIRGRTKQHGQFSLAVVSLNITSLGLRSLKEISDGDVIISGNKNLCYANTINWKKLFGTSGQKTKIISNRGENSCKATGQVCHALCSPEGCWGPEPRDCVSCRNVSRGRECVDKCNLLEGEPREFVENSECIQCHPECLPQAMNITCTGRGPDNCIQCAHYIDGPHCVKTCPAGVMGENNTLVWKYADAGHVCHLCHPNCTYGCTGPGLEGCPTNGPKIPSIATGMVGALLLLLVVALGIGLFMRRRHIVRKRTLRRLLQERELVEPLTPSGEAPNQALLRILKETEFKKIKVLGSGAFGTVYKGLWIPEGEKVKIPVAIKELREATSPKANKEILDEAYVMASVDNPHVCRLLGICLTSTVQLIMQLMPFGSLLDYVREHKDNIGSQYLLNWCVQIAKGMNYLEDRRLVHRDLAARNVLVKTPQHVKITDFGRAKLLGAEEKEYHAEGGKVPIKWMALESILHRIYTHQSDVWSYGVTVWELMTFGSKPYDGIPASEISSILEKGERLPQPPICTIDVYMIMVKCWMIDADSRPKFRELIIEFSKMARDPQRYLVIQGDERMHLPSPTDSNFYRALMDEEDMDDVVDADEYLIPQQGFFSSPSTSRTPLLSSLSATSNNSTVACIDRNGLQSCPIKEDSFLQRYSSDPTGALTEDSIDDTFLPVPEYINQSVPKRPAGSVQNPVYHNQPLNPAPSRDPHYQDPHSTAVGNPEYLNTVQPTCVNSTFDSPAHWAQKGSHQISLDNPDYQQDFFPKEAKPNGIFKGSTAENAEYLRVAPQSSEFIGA

On L858R/T790M/C797S EGFR, `Cc1cc2cc(n1)-c1cnn(C3CC3)c1OCCC[C@@H](C)CN1/C(=N/C2=O)Nc2ccc(CN3CCN(C(=O)[C@H]4CN(c5cc(F)c([C@H]6CCC(=O)NC6=O)c(F)c5)CC4(C)C)CC3)cc21` [Example 165, (R)-3-(4-((R)-4-(4-(((R,E)-11-cyclopropyl-2^6,7-dimethyl-3-oxo-5^2,5^3-dihydro-1^1H,5^1H-11-oxa-4-aza-5(2,1)-benzo[d]imidazola-2(2,4)-pyridina-1(4,5)-pyrazolacycloundecaphane-5^6-)n-methyl)piperazine-1-carbonyl)-3,3-dimethylpyrrolidin-1-yl)-2,6-difluorophenyl)piperidine-2,6-dione] returned a DC50 of 3.1 nM and a Dmax of 79.9%. Besides, in the experiment on Del19/T790M/C797S EGFR, the DC50 is 2.95 nM and the “Dmax (%)” value came to 74.73%.

At L858R/T790M/C797S EGFR, `Cc1cc2cc(n1)-c1cnn(C)c1OCCC[C@@H](C)CN1/C(=N/C2=O)Nc2ccc(N3CCN(C4CCN(c5cc(F)c([C@H]6CCC(=O)NC6=O)c(F)c5)CC4)C[C@H]3C)cc21` [Example 384, (R)-3-(2,6-difluoro-4-(4-((R)-3-methyl-4-((R,E)-1^1,2^6,7-trimethyl-3-oxo-5^2,5^3-dihydro-1^1H,5^1H-11-oxa-4-aza-5(2,1)-benzo[d]imidazola-2(2,4)-pyridina-1(4,5)-pyrazolacycloundecaphane-5^6-yl)piperazin-1-yl)piperidin-1-yl)phenyl)piperidine-2,6-dione] displayed a DC50 of 1.67 nM and a Dmax of 87.7%. In the experiment with Del19/T790M/C797S EGFR, half-maximal degradation (DC50) was put at 1.5 nM and the “Dmax (%)” value came out at 75.83%.

At L858R/T790M/C797S EGFR, `Cc1cc2cc(n1)-c1cnn(C)c1OCCC[C@@H](C)CN1/C(=N/C2=O)Nc2ccc(C(=O)N[C@@H]3C[C@H]4CC[C@@H](C3)N4CCc3cc(F)c([C@H]4CCC(=O)NC4=O)c(F)c3)cc21` [Example 264, (R,E)-N—((1R,3S,5S)-8-(4-((R)-2,6-dioxopiperidin-3-yl)-3,5-difluorophenethyl)-8-azabicyclo[3.2.1]octan-3-yl)-1^1,2^6,7-trimethyl-3-oxo-5^2,5^3-dihydro-1^1H,5^1H-11-oxa-4-aza-5(2,1)-benzo[d]imidazola-2(2,4)-pyridina-1(4,5)-pyrazolacycloundecaphane-5^6-carboxamide] registered a DC50 of 0.546 nM and a Dmax of 89.8%. In the experiment on Del19/T790M/C797S EGFR, the DC50 came to 0.677 nM and the “Dmax (%)” value is 68.8%.

Consider `Cc1cc2cc(n1)-c1cnn(C)c1OCCC[C@@H](C)CN1/C(=N/C2=O)Nc2ccc(C(=O)N(C)[C@H]3CCN(C4CN(c5cc(F)c([C@H]6CCC(=O)NC6=O)c(F)c5)C4)CC3(F)F)cc21` [Example 359, (R,E)-N—((S)-1-(1-(4-((R)-2,6-dioxopiperidin-3-yl)-3,5-difluorophenyl)azetidin-3-yl)-3,3-difluoropiperidin-4-yl)-N,1^1,2^6,7-tetramethyl-3-oxo-5^2,5^3-dihydro-1^1H,5^1H-11-oxa-4-aza-5(2,1)-benzo[d]imidazola-2(2,4)-pyridina-1(4,5)-pyrazolacycloundecaphane-5^6-carboxamide], for which, on L858R/T790M/C797S EGFR, the DC50 is 0.841 nM and the Dmax stood at 87.1%. Besides, in the experiment with Del19/T790M/C797S EGFR, it took 0.751 nM to reach half-maximal degradation (DC50) and the “Dmax (%)” value came out at 83.57%.

On L858R/T790M/C797S EGFR, `Cc1cc2cc(n1)-c1cnn(C)c1OCCC[C@@H](C)CN1/C(=N/C2=O)Nc2ccc(CN3CCN(CC4CN(c5cc(F)c([C@H]6CCC(=O)NC6=O)c(F)c5)C4)CC3)c(C)c21` [Example 148, (R)-3-(2,6-difluoro-4-(3-((4-(((R,E)-1^1,2^6,5^7,7-tetramethyl-3-oxo-5^2,5^3-dihydro-1^1H,5^1H-11-oxa-4-aza-5(2,1)-benzo[d]imidazola-2(2,4)-pyridina-1(4,5)-pyrazolacycloundecaphane-5^6-yl)methyl)piperazin-1-yl)methyl)azetidin-1-yl)phenyl)piperidine-2,6-dione] showed a DC50 of 1.89 nM and a Dmax of 78.7%. Besides, in the experiment with Del19/T790M/C797S EGFR, the DC50 was 3.09 nM and the “Dmax (%)” value came to 70.93%.

At L858R/T790M/C797S EGFR, `Cc1cc2cc(n1)-c1cnn(C)c1OCCC[C@@H](C)CN1/C(=N/C2=O)Nc2ccc(CN3CCN(C(=O)[C@@H]4CCN(c5ccc(F)c6c5n(C)c(=O)n6C5CCC(=O)NC5=O)C4)CC3)cc21` (stereo partly drawn) [Example 211, 3-(7-fluoro-3-methyl-2-oxo-4-((R)-3-(4-(((R,E)-1^1,2^6,7-trimethyl-3-oxo-5^2,5^3-dihydro-1^1H,5^1H-11-oxa-4-aza-5(2,1)-benzo[d]imidazola-2(2,4)-pyridina-1(4,5)-pyrazolacycloundecaphane-5^6-yl)methyl)piperazine-1-carbonyl)pyrrolidin-1-yl)-2,3-dihydro-1H-benzo[d]imidazol-1-yl)piperidine-2,6-dione] returned a DC50 of 0.852 nM and a Dmax of 85.1%. In the experiment on Del19/T790M/C797S EGFR, the DC50 stood at 0.901 nM and the “Dmax (%)” value came out at 75.24%.

At L858R/T790M/C797S EGFR, `Cc1cc2cc(n1)-c1cnn(C)c1OCCC[C@@H](C)CN1/C(=N/C2=O)Nc2ccc(N3CCC(NC4CCN(c5cc(F)c([C@H]6CCC(=O)NC6=O)c(F)c5)CC4)CC3)cc21` [Example 401, (R)-3-(2,6-difluoro-4-(4-((1-((R,E)-1^1,2^6,7-trimethyl-3-oxo-5^2,5^3-dihydro-1^1H,5^1H-11-oxa-4-aza-5(2,1)-benzo[d]imidazola-2(2,4)-pyridina-1(4,5)-pyrazolacycloundecaphane-5^6-yl)piperidin-4-yl)amino)piperidin-1-yl)phenyl)piperidine-2,6-dione] registered a DC50 of 1.37 nM and a Dmax of 81.1%. Also, in the experiment with Del19/T790M/C797S EGFR, the half-maximal degradation concentration (DC50) is 3.18 nM and the “Dmax (%)” value is given as 70.19%.

On L858R/T790M/C797S EGFR, `Cc1cc2cc(n1)-c1cnn(C)c1OCCC[C@@H](C)CN1/C(=N/C2=O)Nc2cc(C)c(C(=O)N(C)C3CCN(CCc4cc(F)c([C@H]5CCC(=O)NC5=O)c(F)c4)CC3)cc21` [Example 336, (R,E)-N-(1-(4-((R)-2,6-dioxopiperidin-3-yl)-3,5-difluorophenethyl)piperidin-4-yl)-N,1^1,2^6,5^5,7-penta methyl-3-oxo-5^2,5^3-dihydro-1^1H,5^1H-11-oxa-4-aza-5(2,1)-benzo[d]imidazola-2(2,4)-pyridina-1(4,5)-pyrazolacycloundecaphane-5^6-carboxamide] displayed a DC50 of 0.386 nM and a Dmax of 88.4%. Moreover, in the experiment with Del19/T790M/C797S EGFR, the DC50 stood at 0.304 nM and the “Dmax (%)” value is reported as 72.28%.

Regarding `Cc1cc2cc(n1)-c1cnn(C)c1OCCC[C@@H](C)CN1/C(=N/C2=O)Nc2ccc(C(=O)N(C)C3CCN(CCc4cccc5c4C(C)(C)C(=O)N5C4CCC(=O)NC4=O)CC3)cc21` (stereo partly drawn) [Example 317, (7R,E)-N-(1-(2-(1-(2,6-dioxopiperidin-3-yl)-3,3-dimethyl-2-oxoindolin-4-yl)ethyl)piperidin-4-yl)-N,1^1,2^6,7-tetramethyl-3-oxo-5^2,5^3-dihydro-1^1H,5^1H-11-oxa-4-aza-5(2,1)-benzo[d]imidazola-2(2,4)-pyridina-1(4,5)-pyrazolacycloundecaphane-5^6-carboxamide], on L858R/T790M/C797S EGFR, the DC50 was determined as 1.14 nM and the Dmax amounted to 80.2%. Further, in the experiment on Del19/T790M/C797S EGFR, the DC50 stood at 0.728 nM and the “Dmax (%)” value is 52.86%.

Regarding `Cc1cc2cc(n1)-c1cnn(C)c1OCCC[C@@H](C)CN1/C(=N/C2=O)Nc2ccc(C(=O)N(C)[C@H]3CCN(CCc4cc(F)c([C@H]5CCC(=O)NC5=O)c(F)c4)C[C@@H]3F)cc21` [Example 247, (R,E)-N-((3S,4S)-1-(4-((R)-2,6-dioxopiperidin-3-yl)-3,5-difluorophenethyl)-3-fluoropiperidin-4-yl)-N,1^1,2^6,7-tetramethyl-3-oxo-5^2,5^3-dihydro-1^1H,5^1H-11-oxa-4-aza-5(2,1)-benzo[d]imidazola-2(2,4)-pyridina-1(4,5)-pyrazolacycloundecaphane-5^6-carboxamide], at L858R/T790M/C797S EGFR, the DC50 is 0.6 nM and the Dmax was determined as 92.5%. Moreover, in the experiment with Del19/T790M/C797S EGFR, it took 0.611 nM to reach half-maximal degradation (DC50) and the “Dmax (%)” value is 87.12%.

For `Cc1cc2cc(n1)-c1cnn(C)c1OCCC[C@@H](C)CN1/C(=N/C2=O)Nc2ccc(N3CCC(N4CC(Nc5cc(F)c([C@H]6CCC(=O)NC6=O)c(F)c5)C4)CC3)cc21` [Example 392, (R)-3-(2,6-difluoro-4-((1-(1-((R,E)-1^1,2^6,7-trimethyl-3-oxo-5^2,5^3-dihydro-1^1H,5^1H-11-oxa-4-aza-5(2,1)-benzo[d]imidazola-2(2,4)-pyridina-1(4,5)-pyrazolacycloundecaphane-5^6-yl)piperidin-4-yl)azetidin-3-yl)amino)phenyl)piperidine-2,6-dione], at L858R/T790M/C797S EGFR, it took 1.29 nM to reach half-maximal degradation (DC50) and the Dmax was determined as 86.7%. Also, in the experiment with Del19/T790M/C797S EGFR, the DC50 worked out at 0.821 nM and the “Dmax (%)” value was 75.48%.

In the case of `Cc1cc2cc(n1)-c1cnn(C)c1OCCC[C@@H](C)CN1/C(=N/C2=O)Nc2ccc(C(=O)N(C)[C@@H]3C[C@H]4CC[C@@H](C3)N4CCc3cc(F)c([C@H]4CCC(=O)NC4=O)c(F)c3)cc21` [Example 265, (R,E)-N—((1R,3S,5S)-8-(4-((R)-2,6-dioxopiperidin-3-yl)-3,5-difluorophenethyl)-8-azabicyclo[3.2.1]octan-3-yl)-N,1^1,2^6,7-tetramethyl-3-oxo-5^2,5^3-dihydro-1^1H,5^1H-11-oxa-4-aza-5(2,1)-benzo[d]imidazola-2(2,4)-pyridina-1(4,5)-pyrazolacycloundecaphane-5^6-carboxamide], at L858R/T790M/C797S EGFR, the DC50 came to 0.246 nM and the Dmax came to 90.9%. In the experiment with Del19/T790M/C797S EGFR, it took 0.625 nM to reach half-maximal degradation (DC50) and the “Dmax (%)” value turned out to be 79.26%.
